Earlier results on one molecule are cited in paper PMC5664587 (Fluids and Barriers of the CNS, 2017).

The conditions of the data set: brain homogenate.

As to `CC(C)NCC(O)COc1cccc2ccccc12` (stereo not shown) [propranolol], the “fu,brain, previously reported” value is 0.029.
